Results published in patent US10907219B2, “Compositions and methods for controlling cellular function” (STC.UNM, priority 2014, dated 2021).
Entries after “also recorded” stand apart in the source; their conditions may differ.

Experiments:
[1] = system: NES-ABI and PYL-eGFP in CHO cells; assay: H2O2-induced ABA-mediated eGFP nuclear exporting (NES localization); format: cell-based
Experimental: Various cellular events are regulated by the dynamic sub-cellular translocation of proteins. To test if protein translocation can be controlled by H2O2, we used a known ABA-inducible eGFP nuclear exporting system consisting of NES-ABI and PYL-eGFP DNA constructs (FIG. 2a; Liang et al., 2011, Sci. Signal. 4, rs2). CHO cells were transfected with both plasmids for 24 hours and then incubated without additive, or with 10 μM of ABA, ABA-HP, or ABA-HP plus 10 eq of H2O2 for one hour.
NES localization experiments: CHO cells were seeded in 24-well plates at 50 K/well with coverslip for 24 hours. 0.4 μg NES-ABI and 0.2 μg eGFP-PYL (FIG. 2a, ii) of DNA plasmid were used for each well, with 30 μL of Opti-MEM (Life Technologies, Carlsbad, Calif.) and 1.8 μL of PEI. After incubation at room temperature for 15 min, the mixture was added to the cells and cultured for 24 hours. Then, 10 μM ABA-HP was added to the cells 10 minutes prior to the addition of 10 μM ABA and 100 μM of H2O2, or 10 μM GA-HP was added to the cells 10 minutes prior to the addition of 10 μM GA-AM and 100 μM of H2O2. Slides were made 30 minutes after addition of compounds and images were taken the next day.
An Axio Observer D1 fluorescent microscope (Carl Zeiss AG, Oberkochen, Germany) outfitted with HBO 100 microscopy illumination system (Carl Zeiss AG, Oberkochen, Germany; GFP: excitation 470/40 and emission 525/50) was used to analyze GFP expression and NES localization. A 20× objective was used to analyze GFP expression. A 63× objective was used for NES localization.

[2] = system: HEK 293T inducible EGFP reporter cell line (VP-PYL and GAL4DBD-ABI); assay: Light-induced EGFP expression; format: cell-based
Text: To confirm that the photo-regenerated ABA is biologically functional, we determined whether it can be employed to induce PYL-ABI dimerization in an ABA-inducible transcriptional activation system using an established HEK 293T inducible EGFP reporter cell line. The cell line was created with both the ABA-responsive split transcriptional activator DNA fragment (VP-PYL and GAL4DBD-ABI linked by IRES; Liang et al., 2011, Sci. Signal. 4, rs2) and an inducible EGFP DNA fragment (with 5×UAS and the IL-2 minimal promoter) inserted into the genome (FIG. 21A). EGFP expression was activated through the recruitment of VP16AD to the EGFP gene in the presence of ABA. 24 hours after plating the cells, 10 μM of ABA, pre-irradiated ABA-DMNB products, or non-irradiated ABA-DMNB were separately added to the cells and incubated for an additional eight hours. EGFP expression was then determined using a fluorescence microscopy.
Cell culture and transfection: CHO cells and HEK 293T EGFP reporter cells (provided by Dr. Gerald R. Crabtree) were cultured in Dulbecco's modified Eagle's medium (DMEM; GIBCO, Life Technologies, Carlsbad, Calif.) with 10% FBS (Atlanta Biologicals, Inc., Norcross, Ga.), 1×GlutaMAX (GIBCO, Life Technologies, Carlsbad, Calif.), and 1× penicillin/streptomycin (Pen/Strep; GIBCO, Life Technologies, Carlsbad, Calif.). 15,000-50,000 ells were plated in a 24-well or 8-well plate for 24 hours before transfection. DNA constructs (0.1 μg-0.5 μg) were added to 50× (v/w) Opti-MEM (GIBCO, Life Technologies, Carlsbad, Calif.), and then 3× (v/w) PEI (Polysciences, Inc., Warrington, Pa.) was mixed with the DNA. The mixture was incubated for 20 minutes at room temperature before adding it to cell cultures. The cells were grown for one day after transfection before experiments were performed.
Photo-irradiation: Irradiation at 365 nm was performed with an Axio Observer (Carl Zeiss AG, Oberkochen, Germany) microscope with an HBO103 W/2 mercury arc lamp (Carl Zeiss AG, Oberkochen, Germany). Irradiation was performed by using a DAPI filter (Carl Zeiss AG, Oberkochen, Germany), set with peak excitation at 365 nm (power density: 23 mW cm^2) and a spectral width of 50 nm. No objective lens was used for whole-well irradiation, which created an area of illumination that nearly completely covered one well of a 24-well plate. Light was transmitted through the bottom of the well of polystyrene plate. Irradiation at 405 nm was performed by using an adjustable focus violet purple laser pointer (LazerPoint SKU 0733579), with an excitation wavelength of 405 nm and 1000 mW intensity positioned 8 cm above the bottom of either a 96-well or 24-well plate and irradiated through the polystyrene lid. […]

[3] = Chemical stability of caged ABA in HEPES buffer/DMSO in the dark (HPLC); format: physicochemical; details: 70% HEPES buffer/30% DMSO, 37° C., 24 h
Experimental: FIG. 26. Chemical stability of ABA-DMNB. ABA-DMNB was incubated in 70% HEPES buffer/30% DMSO at 37° C. for 24 h in the dark. The samples were analyzed by HPLC.
FIG. 32. Chemical stability of ABA-DEACM. ABA-DEACM was incubated in 70% HEPES buffer/30% DMSO at 37° C. for 24 h in the dark. The samples were analyzed by HPLC and absorbance was monitored at 250 nm.
HPLC analysis: Reversed-phase HPLC was performed on an ACCLAIM 120 (4.6×100 mm) C18 column (Thermo Fisher Scientific, Waltham, Mass.) with an ULTIMATE 3000 pump system, including a Variable Wavelength Detector 3100, Degasser 1210, and Autosampler SPS 3000 (Thermo Fisher Scientific, Waltham, Mass.). A mixture of water and acetonitrile containing 0.1% TFA was used as the eluent. Absorbance at 250 nm was used to monitor the elution of the molecules. The method used an increase in acetonitrile from 5% to 95% over 15 minutes to elute the molecules at a flow rate of 0.7 mL/min. The peaks for the molecules were integrated by using Chromeleon software (Thermo Fisher Scientific, Waltham, Mass.). The molar absorptivity of both free and caged ABA at 250 nm were measured, which was used to calculate the concentration of each species from the intensity of absorbance at 250 nm. […]

[4] = 10 μM, compound alone, CHO cells
[5] = 10 μM, not irradiated, eight hours

Structure (SMILES): CC1=CC(=O)CC(C)(C)C1(O)/C=C/C(C)=C\C(=O)O (stereo not drawn) [ABA, abscisic acid, reference compound]
- sub-cellular location of PYL-eGFP [1, 4]: localized out of the nucleus
- eGFP expression [2, 5]: induced EGFP production

Structure (SMILES): CCN(CC)c1ccc2c(COC(=O)/C=C(C)\C=C\[C@@]3(O)C(C)=CC(=O)CC3(C)C)cc(=O)oc2c1 [ABA-DEACM]
- chemical stability in biological buffer in the dark [3]: no chemical decomposition; also recorded: stable chemically

Structure (SMILES): COc1cc(COC(=O)/C=C(C)\C=C\[C@@]2(O)C(C)=CC(=O)CC2(C)C)c([N+](=O)[O-])cc1OC [ABA-DMNB]
- eGFP expression [2, 5]: did not induce EGFP expression
- eGFP expression ([2]; 10 μM, pre-irradiated (pre-photocleaved) products, eight hours): induced EGFP production
- eGFP expression ([2]; irradiated in cell culture, 365 nm): showed EGFP expression
- chemical stability in biological buffer in the dark [3]: no chemical decomposition; also recorded: stable at 37 °C in biological buffer in the dark for 24 hours

Structure (SMILES): CC1=CC(=O)CC(C)(C)[C@@]1(O)/C=C/C(C)=C\C(=O)OCc1ccc(B2OC(C)(C)C(C)(C)O2)cc1 [ABA-HP]
- sub-cellular location of PYL-eGFP ([1]; 10 μM plus 10 eq of H2O2, CHO cells): caused rapid nuclear export
- sub-cellular location of PYL-eGFP [1, 4]: did not change the sub-cellular location of eGFP-PYL
